Measured values: ChEMBL document CHEMBL6120978, “Anticancer activity of salinomycin quaternary phosphonium salts” (Eur J Med Chem, 2025)
The source made the active and inactive calls. The calls are words filed in the database; no cut-off is given here.

Columns and labels:
MDA-MB-231 [1] = assay: Cytotoxicity against human MDA-MB-231 cells incubated for 72 hrs by MTT assay; assay type: functional, cell-based; details: MDA-MB-231, 72 h
SW480 = assay: Cytotoxicity against human SW480 cells incubated for 72 hrs by MTT assay; assay type: functional, cell-based; details: SW480, 72 h
Mitochondrial membrane [2] = assay: Induction of mitochondrial membrane potential loss in human A549 cells assessed as green fluorescence at IC50 incubated for 48 hrs MitoTracker Green FM staining based flow cytometry analysis (reference value: 8.93 %); assay type: cell membranes
[3] = Cytotoxicity against chinese hamster V79 cells incubated for 72 hrs by MTT assay; assay type: toxicity, cell-based, Cricetulus griseus
Staphylococcus aureus [4] = assay: Antimicrobial activity against Staphylococcus aureus ATCC 6538 incubated for 18 hrs by twofold microdilution method; assay type: functional
[5] = Selectivity index, ratio of IC50 for cytotoxicity against human HaCaT cells to IC50 for cytotoxicity against human SW620 cells; assay type: toxicity, cell-based; details: HaCaT cells versus SW620 cells, read-out: Ratio IC50
[6] = system: Staphylococcus epidermidis; assay: Antimicrobial activity against Staphylococcus epidermidis ATCC 12228 incubated for 18 hrs by twofold microdilution method; assay type: functional
PC-3 = assay: Cytotoxicity against human PC-3 cells incubated for 72 hrs by MTT assay; assay type: functional, cell-based; details: PC-3, 72 h
MDA-MB-231 [7] = assay: Induction of cell cycle arrest in human […] cells assessed as accumulation of cells at S phase at IC50 incubated for 24 hrs by propidium iodide staining based flow cytometry analysis; assay type: functional
SW-620 = assay: Cytotoxicity against human SW620 cells incubated for 72 hrs by MTT assay; assay type: functional, cell-based; details: SW-620, 72 h
Staphylococcus aureus [8] = assay: Antimicrobial activity against Staphylococcus aureus NCTC 4163 incubated for 18 hrs by twofold microdilution method; assay type: functional
Staphylococcus aureus [9] = assay: Antimicrobial activity against Staphylococcus aureus ATCC 29213 incubated for 18 hrs by twofold microdilution method; assay type: functional
Pseudomonas aeruginosa = assay: Antimicrobial activity against Pseudomonas aeruginosa ATCC 15442 incubated for 18 hrs by twofold microdilution method; assay type: functional
[10] = Cytotoxicity against human HaCaT cells incubated for 72 hrs by MTT assay; assay type: toxicity, cell-based
A549 [11] = assay: Induction of ROS generation of human A549 cells assessed as fold increase at IC50 incubated for 6 hrs by CellROX Green staining based spectrofluorometer analysis relative to control; assay type: functional
MDA-MB-231 [12] = assay: Effect on mitochondrial mass in human MDA-MB-231 cells assessed as increase in MTGreen positive cells at IC50 incubated for 48 hrs by MitoTracker Green FM staining based flow cytometry analysis relative to control; assay type: functional
MDA-MB-231 [13] = assay: Induction of cell cycle arrest in human […] cells assessed as accumulation of cells at G0/G1 phase at IC50 incubated for 24 hrs by propidium iodide staining based flow cytometry analysis (reference value: 50.9 %); assay type: functional
Mitochondrial membrane [14] = assay: Induction of mitochondrial membrane potential loss in human A549 cells assessed as red fluorescence at IC50 incubated for 48 hrs MitoTrackerRed CMXRos staining based flow cytometry analysis (reference value: 91.1 %); assay type: cell membranes
A549 [15] = assay: Induction of cell cycle arrest in human A549 cells assessed as accumulation of cells at SubG1 phase at IC50 incubated for 24 hrs by propidium iodide staining based flow cytometry analysis (reference value: 0.71 %); assay type: functional
Mitochondrial membrane [16] = assay: Induction of mitochondrial membrane potential loss in human MDA-MB-231 cells assessed as green fluorescence at IC50 incubated for 48 hrs MitoTracker Green FM staining based flow cytometry analysis (reference value: 8.86 %); assay type: cell membranes
MDA-MB-231 [17] = assay: Induction of apoptosis in human MDA-MB-231 cells assessed as viable cells at IC50 incubated for 72 hrs by Annexin V-FITC staining based flow cytometry analysis (reference value: 91.53 %); assay type: functional
Escherichia coli = assay: Antimicrobial activity against Escherichia coli ATCC 25922 incubated for 18 hrs by twofold microdilution method; assay type: functional
[18] = Selectivity index, ratio of IC50 for cytotoxicity against human HaCaT cells to IC50 for cytotoxicity against human MDA-MB-231 cells; assay type: toxicity, cell-based; details: HaCaT cells versus MDA-MB-231 cells, read-out: Ratio IC50
A549 [19] = assay: Induction of cell cycle arrest in human A549 cells assessed as accumulation of cells at G2 phase at IC50 incubated for 24 hrs by propidium iodide staining based flow cytometry analysis (reference value: 20.8 %); assay type: functional
MDA-MB-231 [20] = assay: Induction of apoptosis in human MDA-MB-231 cells assessed as necrotic cells at IC50 incubated for 72 hrs by Annexin V-FITC staining based flow cytometry analysis (reference value: 1.17 %); assay type: functional
[21] = Selectivity index, ratio of IC50 for cytotoxicity against human HaCaT cells to IC50 for cytotoxicity against human A549 cells; assay type: toxicity, cell-based; details: HaCaT cells versus A549 cells, read-out: Ratio IC50
[22] = Selectivity index, ratio of IC50 for cytotoxicity against chinese hamster V79 cells to IC50 for cytotoxicity against human PC-3 cells; assay type: toxicity, cell-based; details: V79 cells versus PC-3 cells, read-out: Ratio IC50
MDA-MB-231 [23] = assay: Induction of cell cycle arrest in human […] cells assessed as accumulation of cells at G2 phase at IC50 incubated for 24 hrs by propidium iodide staining based flow cytometry analysis; assay type: functional
[24] = Selectivity index, ratio of IC50 for cytotoxicity against chinese hamster V79 cells to IC50 for cytotoxicity against human SW480 cells; assay type: toxicity, cell-based; details: V79 cells versus SW480 cells, read-out: Ratio IC50
[25] = Selectivity index, ratio of IC50 for cytotoxicity against chinese hamster V79 cells to IC50 for cytotoxicity against human MDA-MB-231 cells; assay type: toxicity, cell-based; details: V79 cells versus MDA-MB-231 cells, read-out: Ratio IC50
Mitochondrial membrane [26] = assay: Induction of mitochondrial membrane potential loss in human MDA-MB-231 cells assessed as red fluorescence at IC50 incubated for 48 hrs MitoTrackerRed CMXRos staining based flow cytometry analysis (reference value: 91.1 %); assay type: cell membranes
[27] = system: Staphylococcus epidermidis; assay: Antimicrobial activity against Staphylococcus epidermidis ATCC 35984 incubated for 18 hrs by twofold microdilution method; assay type: functional
A549 [28] = assay: Induction of cell cycle arrest in human A549 cells assessed as accumulation of cells at S phase at IC50 incubated for 24 hrs by propidium iodide staining based flow cytometry analysis (reference value: 21.6 %); assay type: functional
[29] = Selectivity index, ratio of IC50 for cytotoxicity against human HaCaT cells to IC50 for cytotoxicity against human PC-3 cells; assay type: toxicity, cell-based; details: HaCaT cells versus PC-3 cells, read-out: Ratio IC50
MDA-MB-231 [30] = assay: Induction of apoptosis in human MDA-MB-231 cells assessed as early apoptotic cells at IC50 incubated for 72 hrs by Annexin V-FITC staining based flow cytometry analysis (reference value: 4.23 %); assay type: functional
A549 [31] = assay: Cytotoxicity against human A549 cells incubated for 72 hrs by MTT assay; assay type: functional, cell-based; details: A549, 72 h
A549 [32] = assay: Induction of apoptosis in human A549 cells assessed as viable cells at IC50 incubated for 72 hrs by Annexin V-FITC staining based flow cytometry analysis (reference value: 95.49 %); assay type: functional
A549 [33] = assay: Induction of apoptosis in human A549 cells assessed as early apoptotic cells at IC50 incubated for 72 hrs by Annexin V-FITC staining based flow cytometry analysis (reference value: 1.68 %); assay type: functional

`CCCC[P+](CCCC)(CCCC)CCCCOC(=O)[C@H](CC)[C@H]1CC[C@H](C)[C@H]([C@@H](C)[C@H](O)[C@H](C)C(=O)[C@H](CC)[C@H]2O[C@]3(C=C[C@@H](O)[C@]4(CC[C@@](C)([C@H]5CC[C@](O)(CC)[C@H](C)O5)O4)O3)[C@H](C)C[C@@H]2C)O1.[Br-]` showed an IC50 (MDA-MB-231 [1]) of 900 nM, an IC50 (SW480) of 490 nM and an Activity (Mitochondrial membrane [2]) of 32.5%. It also gave an IC50 at 72 h [3] of 590 nM, an MIC (Staphylococcus aureus [4]) of 2 µg/mL and a selectivity ratio [5] of 1.3. For the same compound, the MIC [6] was 2 µg/mL, the IC50 (PC-3) was 1450 nM and the Activity (MDA-MB-231 [7]) was “inactive”. The IC50 (SW-620) was 520 nM, the MIC (Staphylococcus aureus [8]) was 2 µg/mL and the MIC (Staphylococcus aureus [9]) was 2 µg/mL. For the same compound, the MIC (Pseudomonas aeruginosa) was over 256 µg/mL, the IC50 at 72 h [10] was 700 nM and the “fold change (FC)” value (A549 [11]) was 2. It also gave an Activity (MDA-MB-231 [12]) of 90%, an Activity (MDA-MB-231 [13]) of 76.2% and an Activity (Mitochondrial membrane [14]) of 67.3%. For the same compound, the Activity (A549 [15]) was “Active”, the Activity (Mitochondrial membrane [16]) was 70.7% and the Activity (MDA-MB-231 [17]) was 33.55%. For the same compound, the MIC (Escherichia coli) was over 256 µg/mL, the selectivity ratio [18] was 0.8 and the Activity (A549 [19]) was “Active”. It also gave an Activity (MDA-MB-231 [20]) of 5.15%, a selectivity ratio [21] of 0.8 and a selectivity ratio [22] of 0.4. The Activity (MDA-MB-231 [23]) was “inactive”, the selectivity ratio [24] was 1.2 and the selectivity ratio [25] was 0.7. For the same compound, the Activity (Mitochondrial membrane [26]) was 29.4%, the MIC [27] was 2 µg/mL and the Activity (A549 [28]) was “Active”. The selectivity ratio [29] was 0.5, the Activity (MDA-MB-231 [30]) was 39.5% and the IC50 (A549 [31]) was 860 nM. It also gave an Activity (A549 [32]) of 19.91% and an Activity (A549 [33]) of 52.57%.
`CC[C@@H](C(=O)[C@@H](C)[C@@H](O)[C@H](C)[C@@H]1O[C@@H]([C@@H](CC)C(=O)OCCCC[P+](c2ccccc2)(c2ccccc2)c2ccccc2)CC[C@@H]1C)[C@H]1O[C@]2(C=C[C@@H](O)[C@]3(CC[C@@](C)([C@H]4CC[C@](O)(CC)[C@H](C)O4)O3)O2)[C@H](C)C[C@@H]1C.[Br-]` gave an IC50 (MDA-MB-231 [1]) of 740 nM, an IC50 (SW480) of 390 nM and an Activity (Mitochondrial membrane [2]) of 41.7%. It also gave an IC50 at 72 h [3] of 130 nM, an MIC (Staphylococcus aureus [4]) of 1 µg/mL and a selectivity ratio [5] of 8.8. For the same compound, the MIC [6] was 2 µg/mL, the IC50 (PC-3) was 1350 nM and the Activity (MDA-MB-231 [7]) was “inactive”. The IC50 (SW-620) was 140 nM, the MIC (Staphylococcus aureus [8]) was 2 µg/mL and the MIC (Staphylococcus aureus [9]) was 1 µg/mL. For the same compound, the MIC (Pseudomonas aeruginosa) was 256 µg/mL, the IC50 at 72 h [10] was 1230 nM and the “fold change (FC)” value (A549 [11]) was 2. For the same compound, the Activity (MDA-MB-231 [12]) was 90%, the Activity (MDA-MB-231 [13]) was 77.7% and the Activity (Mitochondrial membrane [14]) was 58.3%. It also gave an Activity (A549 [15]) of 6%, an Activity (Mitochondrial membrane [16]) of 60.8% and an Activity (MDA-MB-231 [17]) of 51.49%. For the same compound, the MIC (Escherichia coli) was 256 µg/mL, the selectivity ratio [18] was 1.7 and the Activity (A549 [19]) was 12%. For the same compound, the Activity (MDA-MB-231 [20]) was 5.23%, the selectivity ratio [21] was 1.8 and the selectivity ratio [22] was 0.1. The Activity (MDA-MB-231 [23]) was “inactive”, the selectivity ratio [24] was 0.3 and the selectivity ratio [25] was 0.2. The Activity (Mitochondrial membrane [26]) was 39.1%, the MIC [27] was 1 µg/mL and the Activity (A549 [28]) was 13.2%. The selectivity ratio [29] was 0.9, the Activity (MDA-MB-231 [30]) was 27.96% and the IC50 (A549 [31]) was 670 nM. For the same compound, the Activity (A549 [32]) was 31.8% and the Activity (A549 [33]) was 59.17%.
